Values of other authors as cited in paper PMC9109461, “Challenges and opportunities in the development of metal-based anticancer theranostic agents” (Bioscience Reports, 2022).

Legend:
[1] = tested on: CaSki cells; parameters: method as in PMID 30551086
[2] = tested on: HeLa cells; parameters: method as in PMID 28948792; conditions: MTT assay
[3] = tested on: A549R; parameters: method as in PMID 30888144; conditions: A549R cells

IC50 [1]: 4.2 µM
IC50 [2]: 3 ± 1.2 µM
Substance: [(cis-Pt(NH3)2Cl2] [cisplatin]
IC50 [3]: 51.3 ± 1.9 µM
